Consider two molecules from US20260151431A1, “ACTIVATED STEM CELLS AND SYSTEMIC TREATMENT METHODS FOR INFECTED WOUNDS” (Colorado State University Research Foundation, priority 2015, published 2026).

The test system of test [1] is highly antibiotic-resistant strains of bacteria. Nature of the test: In vitro killing of highly antibiotic-resistant bacteria by activated MSC and antibiotic. Particulars: triplicate cultures, assessed 4 h later; antibiotic at very high doses. It counts as cell-based. As for the experimental part:
Using a similar experimental design as described in Example 9, supra, highly antibiotic-resistant strains of bacteria were incubated with activated MSC alone, antibiotics alone (cefazolin (cefa)), or antibiotics+activated MSC in triplicate cultures and bacterial killing assessed 4 h later.

A further test relates to inflammatory monocytes. It counts as in vivo, mice. Particulars: chronic S. aureus infected wounds; i.v. MSC; compared to untreated control animals. As for the experimental part:
Studies were done to investigate the impact of activated MSC on host immune responses, including monocyte, macrophage, and neutrophil responses. The numbers of monocytes migrating into wound tissues was determined by use of reporter mice whose inflammatory monocytes all expressed GFP. Wounds from S. aureus infected mice were immunostained for detection of inflammatory monocytes.

Turning to `Cc1nnc(SCC2=C(C(=O)O)N3C(=O)[C@@H](NC(=O)Cn4cnnn4)[C@H]3SC2)s1` [cefazolin], the bacterial killing result in test [1] is listed as “little bacterial killing”.
Consider “amoxicillin-clavulanic acid [antibiotics]”, for which, in the test on inflammatory monocytes, the “number of monocytes infiltrating the wounds” value is given as “relatively sparse population of monocytes”.
